As usually defined, the IC50 is the concentration that gives 50% inhibition.

Assay [1] concerns PBMCs. In words: LPS-induced TNFα/IL-8 release in PBMC cells. In kind it is cell-based. The following applies: Homo sapiens, LPS-stimulated PBMCs, IL-8, read-out: IC50 Values for Inhibition of Cytokine Release PBMCs IL-8. The procedure: Peripheral blood mononuclear cells (PBMCs) from healthy subjects are separated from whole blood using a density gradient (Lymphoprep, Axis-Shield Healthcare). The PBMCs are seeded in 96 well plates and treated with compounds at the desired concentration for 2 hours before addition of 1 ng/mL LPS (Escherichia Coli 0111:B4 from Sigma Aldrich) for 24 hours under normal tissue culture conditions (37° C., 5% CO2). The supernatant is harvested for determination of IL-8 and TNFα concentrations by sandwich ELISA (Duo-set, R&D systems) and read on the fluorescence microplate reader (Varioskan® Flash, ThermoFisher Scientific). The concentration at 50% inhibition (IC50) of IL-8 and TNFα production is calculated from the dose response curve.

Assay [2] relates to PBMCs. Description: IL-2 and IFN gamma release in CD3/CD28 stimulated PBMC cells. In kind it is cell-based. The following applies: Homo sapiens. The procedure: PBMCs from healthy subjects are separated from whole blood using a density gradient (Lymphoprep, Axis-Shield Healthcare). Cells are added to a 96 well plate pre-coated with a mixture of CD3/CD38 monoclonal antibodies (0.3 μg/mL eBioscience and 3 μg/mL BD Pharmingen respectively). Compound at the desired concentration is then added to the wells and the plate left for 3 days under normal tissue culture conditions. Supernatants are harvested and IL-2 and IFN gamma release determined by Sandwich ELISA (Duo-set, R&D System). The IC50 is determined from the dose response curve.

The target in the next assay is GSK3α (Homo sapiens (Human), UniProt P49840). Description: GSK 3α enzyme inhibition (Method 2), Z-LYTE FRET. In kind it is biochemical. The procedure:
(§1) The enzyme inhibitory activities of compounds disclosed herein are determined by FRET using synthetic peptides labelled with both donor and acceptor fluorophores (Z-LYTE, Invitrogen Ltd., Paisley, UK).
The inhibitory activities of compounds of the invention against the GSK 3α enzyme isoform (Invitrogen), are evaluated by determining the level of activation/phosphorylation of the target peptide. The GSK3-α protein (500 ng/mL, 2.5 μL) is mixed with the test compound (2.5 μL at either 4 μg/mL, 0.4 μg/mL, 0.04 μg/mL, or 0.004 μg/mL) for 2 hr at RT. The FRET peptide (8 μM, 2.5 μL), which is a phosphorylation target for GSK3α, and ATP (40 μM, 2.5 μL) are then added to the enzyme/compound mixture and the resulting mixture incubated for 1 hr. Development reagent (protease, 5 μL) is added for 1 hr prior to detection in a fluorescence microplate reader (Varioskan® Flash, ThermoFisher Scientific).
(§2) In all cases, the site-specific protease cleaves non-phosphorylated peptide only and eliminates the FRET signal. Phosphorylation levels of each reaction are calculated using the ratio of coumarin emission (donor) over fluorescein emission (acceptor), for which high ratios indicate high phosphorylation and low ratios indicate low phosphorylation levels. The percentage inhibition of each reaction is calculated relative to non-inhibited control and the 50% inhibitory concentration (IC50 value) is then calculated from the concentration-response curve.
This method follows the same steps as Method 1 above, but utilises a shorter period of mixing of the test compound (105 minutes instead of 2 hours) with the GSK3-α protein.

The test system of another assay is d-U937 cells. In words: LPS-induced TNFα/IL-8 release in d-U937 cells. In kind it is cell-based. The following applies: Homo sapiens, dU937, LPS-stimulated d-U937 cells. How it is done: U937 cells, a human monocytic cell line, are differentiated to macrophage-type cells by incubation with phorbol myristate acetate (PMA; 100 ng/mL) for 48 to 72 hr. Cells are pre-incubated with final concentrations of test compound for 2 hr and are then stimulated with 0.1 μg/mL of LPS (from E. Coli: 0111:B4, Sigma) for 4 hr. The supernatant is collected for determination of TNFα and IL-8 concentrations by sandwich ELISA (Duo-set, R&D systems). The inhibition of TNFα production is calculated as a percentage of that achieved by 10 μg/mL of BIRB796 at each concentration of test compound by comparison against vehicle control. The relative 50% effective concentration (REC50) is determined from the resultant concentration-response curve. The inhibition of IL-8 production is calculated at each concentration of test compound by comparison with vehicle control. The 50% inhibitory concentration (IC50) is determined from the resultant concentration-response curve.

The target in a further assay is Syk (Homo sapiens (Human), UniProt P43405). Description: Syk enzyme inhibition, Z-LYTE FRET. In kind it is biochemical. How it is done: as §1
(§3) The inhibitory activities of compounds of the invention against c-Src and Syk enzymes (Invitrogen), are evaluated in a similar fashion to that described hereinabove. The relevant enzyme (3000 ng/mL or 2000 ng/mL respectively, 2.5 μL) is incubated with the test compound (either 4 μg/mL, 0.4 μg/mL, 0.04 μg/mL, or 0.004 μg/mL, 2.5 μL each) for 2 hr at RT. The FRET peptides (8 μM. 2.5 μL), and appropriate ATP solutions (2.5 μL, 800 μM for c-Src, and 60 μM ATP for Syk) are then added to the enzymes/compound mixtures and incubated for 1 hr. Development reagent (protease, 5 μL) is added for 1 hr prior to detection in a fluorescence microplate reader (Varioskan® Flash, ThermoFisher Scientific).
as §2

A further assay has as its target c-Src (Homo sapiens (Human), UniProt P12931). Description: c-Src enzyme inhibition, Z-LYTE FRET. The format is biochemical. The procedure:
as §1, §3, §2

The target of a further assay is p38 MAPKα (Homo sapiens (Human), UniProt Q16539). In words: p38 MAPKα enzyme inhibition (Method 2), Z-LYTE FRET. In kind it is biochemical. How it is done: as §1
The inhibitory activities of test compounds against the p38 MAPKα isoform (MAPK14: Invitrogen), are evaluated indirectly by determining the level of activation/phosphorylation of the down-stream molecule, MAPKAP-K2. The p38 MAPKα protein (80 ng/mL, 2.5 μL) is mixed with the test compound (2.5 μL of either 4 μg/mL, 0.4 μg/mL, 0.04 μg/mL or 0.004 μg/mL) for 2 hr at RT. […] The mixture is incubated for 1 hr at RT. Development reagent (protease, […]) is added for 1 hr prior to detection in a fluorescence microplate reader (Varioskan® Flash, ThermoFisher Scientific).
This method follows the same steps as Method 1 above, but utilises a higher concentration of the p38 MAPKα protein (2.5 μL of 200 ng/mL protein instead of 2.5 μL of 80 ng/mL protein) for mixing with the test compound.
as §2

The next assay concerns HT29 cells. In words: IL-1-induced IL-8 release in HT29 cells. In kind it is cell-based. The conditions noted are these: Homo sapiens, HT-29, IL-1β-stimulated HT29 cells, read-out: IC50 Values for Inhibition of Cytokine Release HT29 cells IL-8. How it is done:
HT29 cells, a human colon adenocarcinoma cell line, are plated in a 96 well plate (24 hrs) and pre-treated with compounds at the desired concentration for 2 hours before addition of 5 ng/mL of IL-1β (Abcam) for 24 hours. Supernatants are harvested for IL-8 quantification by Sandwich ELISA (Duo-set, R&D System). The IC50 is determined from the dose response curve.

[3] abbreviates: IFNγ, read-out: IC50 Values for Inhibition of Cytokine Release PBMCs IFNγ.
Setting [4] is: IL-2, read-out: IC50 Values for Inhibition of Cytokine Release PBMCs IL-2.
Setting [5] is: IL-8, read-out: IC50 Values for Inhibition of Cytokine Release dU937 cells IL-8.

Where two headings read alike, the source gives them in different places.

Sequence of c-Src (P12931 whole entry, looked up): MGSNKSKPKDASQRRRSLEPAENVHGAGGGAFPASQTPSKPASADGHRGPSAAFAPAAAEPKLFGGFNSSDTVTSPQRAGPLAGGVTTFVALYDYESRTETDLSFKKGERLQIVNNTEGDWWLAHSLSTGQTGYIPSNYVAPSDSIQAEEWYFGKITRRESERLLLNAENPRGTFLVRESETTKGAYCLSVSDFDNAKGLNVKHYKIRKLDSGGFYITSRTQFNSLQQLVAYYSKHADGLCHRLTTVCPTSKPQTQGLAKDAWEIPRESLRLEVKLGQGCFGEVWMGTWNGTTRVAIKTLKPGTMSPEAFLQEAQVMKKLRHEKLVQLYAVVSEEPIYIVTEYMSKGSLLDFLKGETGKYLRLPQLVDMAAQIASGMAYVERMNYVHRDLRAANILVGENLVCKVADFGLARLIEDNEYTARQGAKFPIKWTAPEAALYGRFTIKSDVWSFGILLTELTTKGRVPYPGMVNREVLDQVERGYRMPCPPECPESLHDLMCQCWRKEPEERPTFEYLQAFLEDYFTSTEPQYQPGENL
Sequence of p38 MAPKα (Q16539 whole entry, canonical isoform): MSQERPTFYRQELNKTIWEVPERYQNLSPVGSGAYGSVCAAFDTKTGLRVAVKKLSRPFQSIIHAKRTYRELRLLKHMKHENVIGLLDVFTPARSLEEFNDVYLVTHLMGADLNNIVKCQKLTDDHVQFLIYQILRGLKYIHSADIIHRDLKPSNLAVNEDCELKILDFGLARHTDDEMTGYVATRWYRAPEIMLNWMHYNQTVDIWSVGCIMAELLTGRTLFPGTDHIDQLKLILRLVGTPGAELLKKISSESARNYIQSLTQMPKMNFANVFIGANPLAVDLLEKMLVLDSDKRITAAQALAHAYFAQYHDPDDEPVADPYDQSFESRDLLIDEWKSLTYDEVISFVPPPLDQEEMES
Sequence of GSK3α (P49840 whole entry): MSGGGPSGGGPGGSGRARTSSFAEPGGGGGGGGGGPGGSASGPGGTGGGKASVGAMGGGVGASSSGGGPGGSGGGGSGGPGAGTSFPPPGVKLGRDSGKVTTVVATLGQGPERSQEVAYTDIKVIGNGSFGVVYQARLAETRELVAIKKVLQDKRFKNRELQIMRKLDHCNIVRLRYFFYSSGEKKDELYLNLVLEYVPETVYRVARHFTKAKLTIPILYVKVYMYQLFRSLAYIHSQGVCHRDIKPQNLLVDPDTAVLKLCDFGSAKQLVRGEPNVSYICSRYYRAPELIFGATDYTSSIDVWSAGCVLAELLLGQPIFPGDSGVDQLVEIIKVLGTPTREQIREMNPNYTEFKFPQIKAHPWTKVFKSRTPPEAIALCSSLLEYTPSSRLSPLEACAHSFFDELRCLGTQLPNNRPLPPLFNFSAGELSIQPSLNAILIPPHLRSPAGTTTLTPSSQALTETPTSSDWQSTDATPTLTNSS

Regarding `C#CC(C)(C)c1cc(NC(=O)Nc2ccc(Oc3ccnc(Nc4cc(C(=O)NCCN5CCOCC5)cc(C(F)(F)F)c4)n3)c3ccccc23)n(-c2ccc(C)cc2)n1` [Example 12, 3-((4-((4-(3-(3-(2-Methylbut-3-yn-2-yl)-1-(p-tolyl)-1H-pyrazol-5-yl)ureido)naphthalen-1-yl)oxy)pyrimidin-2-yl)amino)-N-(2-morpholinoethyl)-5-(trifluoromethyl)benzamide], the IC50 with PBMCs [1] worked out at 0.0021 µM; with PBMCs [2] (setting [3]), 0.0026 µM; with PBMCs [2] (setting [4]) it was 0.171 µM; against GSK3α it was 2.31 µM; with d-U937 cells (setting [5]), 0.0012 µM; at Syk it was 0.275 µM. In addition, the IC50 amounted to 0.074 µM on c-Src, 0.214 µM against p38 MAPKα and 0.0037 µM in the assay on HT29 cells.

Take `C#Cc1cc(Nc2nccc(Oc3ccc(NC(=O)Nc4cc(C(C)(C)C#C)nn4-c4ccc(C)cc4)c4ccccc34)n2)cc(C(=O)NCCN2CCOCC2)c1` [Example 15, 3-Ethynyl-5-((4-((4-(3-(3-(2-methylbut-3-yn-2-yl)-1-(p-tolyl)-1H-pyrazol-5-yl)ureido)naphthalen-1-yl)oxy)pyrimidin-2-yl)amino)-N-(2-morpholinoethyl)benzamide]: the IC50 worked out at 0.0008 µM in the assay with PBMCs [1]; 0.0024 µM in the assay on PBMCs [2] (setting [3]); 0.0693 µM in the assay with PBMCs [2] (setting [4]); 3.59 µM at GSK3α; 0.0013 µM with d-U937 cells (setting [5]); 0.04 µM against Syk. Moreover, the IC50 is 0.016 µM against c-Src, 0.067 µM at p38 MAPKα and 0.0025 µM with HT29 cells.

As to `C#CC(C)(C)c1cc(NC(=O)Nc2ccc(Oc3ccnc(Nc4ccc5c(c4)NC(=O)C5)n3)c3ccccc23)n(-c2ccc(C)cc2)n1` [Example 3, 1-(3-(2-Methylbut-3-yn-2-yl)-1-(p-tolyl)-1H-pyrazol-5-yl)-3-(4-((2-((2-oxoindolin-6-yl)amino)pyrimidin-4-yl)oxy)naphthalen-1-yl)urea], the IC50 in the assay on PBMCs [1] is 0.0021 µM; in the assay on PBMCs [2] (setting [4]), 0.0007 µM; against GSK3α, greater than 10 µM; in the assay with d-U937 cells (setting [5]), 0.0044 µM; in the assay with d-U937 cells (TNFα (method describes REC50 relative to BIRB796), read-out: IC50 Values for Inhibition of Cytokine Release dU937 cells TNFα), 0.0028 µM; at Syk, 0.113 µM. Further, the IC50 is 0.203 µM at c-Src, 0.087 µM at p38 MAPKα and 0.006 µM in the assay with HT29 cells.

Source of the values: US9790209B2, “Kinase inhibitors” (Respivert Limited, priority 2012, dated 2017).
